Legend:
Proteinuria in patients = assay type: in vivo, human; settings: for induction of proteinuria: in some patients, dose not stated
[1] = system: PBQ-induced abdominal stretching in mice; experiment: Blockage of abdominal stretching induced by 2-phenyl-1,4-benzoquinone (PBQ); assay type: in vivo, mice (Carworth males, albino CF-1 strain); settings: oral, one hour before PBQ 2 mg/kg intraperitoneally
Description: The method is based on that of Siegmund et al., Proc. Soc. Exp. Biol. Med., 95, 729-731, (1957), as adapted for high throughput [see further Milne and Twomey, Agents and Actions, 10, 31-37, (1980)]. The mice used in these experiments are Carworth males, albino CF-1 strain, weighing 18-20 g. All mice are fasted overnight prior to drug administration and testing.
6-Chloro-5-fluoro-3-(2-thenoyl)-2-oxindole-1-carboxamide is dissolved or suspended in a vehicle consisting of ethanol (5%), emulphor 620 (a mixture of polyoxyethylene fatty acid esters, 5%) and saline (90%). This vehicle also served as control. Doses are on a logarithmic scale (i.e., . . . 0.32, 1.0, 3.2, […] . . . mg/kg), and are calculated from weights of the salt when applicable. The route of administration is oral, with concentrations varied to allow a constant dosage of 10 ml/kg of mouse. The aforesaid method of Milne and Towney is used to determine efficacy and potency. […] Individual mice are then immediately placed in a warmed lucite chamber, and, starting five minutes after PBQ administration, the number of abdominal constrictions during the subsequent 5 minutes are recorded. The degree of analgesic protection, Maximal Possible Effect (% MPE), is calculated on the basis of suppression of abdominal constriction relative to counts from concurrent control animals run on the same day. […]

[2] = system: carrageenin-induced rat-foot edema; experiment: Carrageenin-induced rat-foot edema test; assay type: in vivo, rats (adult, male, albino); settings: by gavage, one hour before carrageenin
Excerpt: [Winter et al., Proc. Soc. Exp. Biol. Med., 111, 544, (1963)].
Unanesthetized, adult, male, albino rats of 150 g to 190 g body weight are numbered, weighed, and an ink mark placed on the right lateral malleolus. Each paw is immersed in mercury exactly to the ink mark. The mercury is contained in a glass cylinder, connected to a Statham Pressure Transducer. The output from the transducer is fed through a control unit to a microvoltameter. The volume of mercury displaced by the immersed paw is read. The drug is given by gavage. One hour after drug administration, edema is induced by injection of 0.05 ml of 1% solution of carrageenin into the plantar tissue of the marked paws. Immediately thereafter, the volume of the injected foot is measured. The increase in foot volume 3 hours after the injection of carrageenin constitutes the individual inflammatory response.

[3] = Double blind, placebo controlled, crossover study, urine protein/creatinine ratio (Example 2); assay type: in vivo, human; settings: 80 mg/day, four weeks
Description: (§1) "Significant increase or decrease" for proteinuria effects is herein defined as an increase or decrease having statistical significance as determined by conducting an analysis of variance (ANOVA). First, a regression line is fitted to protein/creatinine (PC) ratio data for each patient and treatment period, and a slope is determined. The slope is then analyzed using an ANOVA to test for sequence, period and treatment effects, to determine if a difference exists between the control and treated groups.
(§2) Large amounts of creatinine and much smaller amounts of protein are normally excreted in the urine of normal human subjects, and a protein/creatinine ratio of approximately 0.05 to 0.1 is usually maintained.
Using a double blind, placebo controlled, crossover design, 6-chloro-5-fluoro-3-(2-thenoyl)-2-oxindole-1-carboxamide was administered to 25 patients at a dose level of 80 mg/day. Patients were randomized to receive either 6-chloro-5-fluoro-3-(2-thenoyl)-2-oxindole-1-carboxamide for four weeks followed by placebo for four weeks, or to receive placebo for four weeks followed by 6-chloro-5-fluoro-3-(2-thenoyl)-2-oxindole-1-carboxamide for four weeks. Patients could switch to the second leg of the treatment regimen earlier if symptoms became intolerable. […] Urine protein/creatinine ratio was determined at baseline and weekly during the study. […]

[4] = Double blind placebo-controlled study, urine protein/creatinine ratio (Example 1); assay type: in vivo, human
Description: as §1, §2
Using a double blind placebo-controlled design, 6-chloro-5-fluoro-3-(2-thenoyl)-2-oxindole-1-carboxamide was administered to 36 patients at dose levels of 40, 80, 160 and 320 mg, once daily. A single dose was given on day 1, followed by a seven day washout period, and then dosing was continued for a further 21 days. […] In addition, following the 2nd, 8th and 22nd dose; and 240 hours after the last dose, one 20 ml aliquot of urine, following the first am void but prior to the administration of study medication, was withdrawn for measurement of quantitative protein and creatinine.

Row | change in urine protein/creatinine ratio during treatment [3] | urine protein/creatinine ratio, drug vs placebo treatment ([3]; crossover) | proteinuria ([4]; 320 mg/day) | urine protein/creatinine ratio, drug treated groups vs placebo treated groups ([4]; 40, 80, 160 and 320 mg once daily, single dose, seven day washout, then further 21 days) | Structure (SMILES) | patients with proteinuria (Proteinuria in patients; 80 mg/day, within four weeks) | course of proteinuria (Proteinuria in patients; 80 mg/day, upon discontinuation of medication) | induction of proteinuria (Proteinuria in patients) | analgesic activity [1] | anti-inflammatory activity [2]
1 |  |  |  |  | NC(=O)N1C(=O)C(C(=O)c2cccs2)c2cc(Cl)ccc21 (stereo not shown) [5-chloro-3-(2-thenoyl)-2-oxindole-1-carboxamide] | 10-15% | non-progressive and reversible upon discontinuation of medication | induce non-progressive, reversible proteinuria in some patients |  | 
2 | No significant changes | no significant differences | does not cause proteinuria | no significant differences | NC(=O)N1C(=O)C(C(=O)c2cccs2)c2cc(F)c(Cl)cc21 (stereo not shown) [6-Chloro-5-fluoro-3-(2-thenoyl)-2-oxindole-1-carboxamide] |  |  | does not induce proteinuria | possess analgesic activity | possesses anti-inflammatory activity
